Literature values as cited in US8324158B2, “Methods for inhibiting CLC-2 channel with GATX2” (Georgia Tech Research Corporation, priority 2006, dated 2012).

Molecular target: ClC-1 (Homo sapiens, UniProt P35523)
Sequence (P35523 whole entry, species assumed): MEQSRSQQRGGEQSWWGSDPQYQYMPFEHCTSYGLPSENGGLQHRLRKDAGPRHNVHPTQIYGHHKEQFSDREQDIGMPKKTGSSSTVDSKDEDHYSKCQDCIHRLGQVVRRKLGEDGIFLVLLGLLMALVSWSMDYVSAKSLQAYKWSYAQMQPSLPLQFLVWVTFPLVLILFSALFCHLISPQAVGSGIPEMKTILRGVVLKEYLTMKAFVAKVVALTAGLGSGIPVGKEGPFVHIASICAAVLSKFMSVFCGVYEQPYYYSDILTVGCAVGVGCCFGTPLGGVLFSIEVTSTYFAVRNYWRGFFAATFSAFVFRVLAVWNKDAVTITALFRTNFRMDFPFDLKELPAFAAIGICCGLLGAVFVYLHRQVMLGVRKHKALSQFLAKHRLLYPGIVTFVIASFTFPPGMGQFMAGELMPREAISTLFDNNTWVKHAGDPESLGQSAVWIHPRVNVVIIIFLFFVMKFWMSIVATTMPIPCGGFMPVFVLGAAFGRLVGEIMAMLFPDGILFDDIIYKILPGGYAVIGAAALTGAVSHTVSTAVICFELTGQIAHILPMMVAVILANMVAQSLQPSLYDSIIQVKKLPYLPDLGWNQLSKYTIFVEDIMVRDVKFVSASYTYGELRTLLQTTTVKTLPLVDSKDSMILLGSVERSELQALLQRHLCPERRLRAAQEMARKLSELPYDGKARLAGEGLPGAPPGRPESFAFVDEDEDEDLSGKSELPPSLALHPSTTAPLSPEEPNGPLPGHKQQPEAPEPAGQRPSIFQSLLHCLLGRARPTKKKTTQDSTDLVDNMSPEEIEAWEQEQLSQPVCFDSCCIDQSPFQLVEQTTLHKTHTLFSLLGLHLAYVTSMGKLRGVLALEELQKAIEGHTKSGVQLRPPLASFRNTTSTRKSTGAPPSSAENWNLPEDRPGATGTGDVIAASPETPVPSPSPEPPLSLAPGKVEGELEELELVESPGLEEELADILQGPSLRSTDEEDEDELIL

In the case of `CC(Oc1ccc(Cl)cc1)C(=O)O` (stereo not shown) [CPP], the Kd is listed as 15 µM.
